Results taken from US8362000B2, “Azetidinyl diamides as monoacylglycerol lipase inhibitors” (Janssen Pharmaceutica NV, priority 2009, dated 2013).
Changes are numbered by the printed parent chain. Read-outs that look alike come from different tables or passages of the source.

Tests used:
[1] = molecular target: T1, MGL (Rattus norvegicus, UniProt Q8R431); assay: 2-AG accumulation assay in rat brain homogenate; assay type: biochemical; conditions: rat brain homogenate, 2-AG accumulation as percent of vehicle; for 2-AG accumulation, % of vehicle control at 1 µM: compound 1 μM, read-out: Rat Brain 2AG % VehCntrl (%) @ 1 μM
T1 construct: one g rat brain was homogenized using a Polytron homogenizer; from tissue; host or cells: rat brain homogenate
T1 sequence (Q8R431 1-303): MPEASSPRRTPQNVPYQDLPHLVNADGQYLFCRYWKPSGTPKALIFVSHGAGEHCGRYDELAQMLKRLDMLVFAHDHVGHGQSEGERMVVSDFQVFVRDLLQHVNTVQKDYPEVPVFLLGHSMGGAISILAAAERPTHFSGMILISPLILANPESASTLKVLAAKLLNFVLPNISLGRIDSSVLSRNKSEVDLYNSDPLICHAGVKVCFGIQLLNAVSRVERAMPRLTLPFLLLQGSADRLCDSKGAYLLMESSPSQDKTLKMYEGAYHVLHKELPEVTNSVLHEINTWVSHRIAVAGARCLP

[2] = molecular target: T2, mutant MGL (Homo sapiens, UniProt Q99685, L169S/L176S); assay: MGL ThermoFluor assay - mutant; assay type: binding
T2 sequence (Q99685 1-303 L169S/L176S): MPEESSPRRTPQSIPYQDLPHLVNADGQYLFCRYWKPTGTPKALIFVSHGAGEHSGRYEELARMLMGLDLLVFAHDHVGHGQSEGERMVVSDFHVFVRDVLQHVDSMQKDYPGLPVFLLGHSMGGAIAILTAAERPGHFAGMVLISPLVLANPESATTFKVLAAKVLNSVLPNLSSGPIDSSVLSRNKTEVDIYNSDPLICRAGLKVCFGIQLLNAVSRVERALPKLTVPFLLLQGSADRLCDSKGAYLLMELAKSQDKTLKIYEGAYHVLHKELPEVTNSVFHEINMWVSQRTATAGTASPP
Protocol: The ThermoFluor (TF) assay is a 384-well plate-based binding assay that measures thermal stability of proteins^1,2. […] TF dye used in all experiments was 1,8-ANS (Invitrogen: A-47). Final TF assay conditions used for MGL studies were 0.07 mg/ml of mutant MGL, 100 μM ANS, 200 mM NaCl, 0.001% Tween-20 in 50 mM PIPES (pH=7.0).
Screening compound plates contained 100% DMSO compound solutions at a single concentration. […] Columns 12 and 24 were used as DMSO reference and contained no compound. […] Following compound dispension, protein and dye solutions were added to achieve the final assay volume of 3 μL.
Bar-coded assay plates were robotically loaded onto a thermostatically controlled PCR-type thermal block and then heated from 40 to 90° C. degrees at a ramp-rate of 1° C./min for all experiments. Fluorescence was measured by continuous illumination with UV light (Hamamatsu LC6), supplied via fiber optics and filtered through a band-pass filter (380-400 nm; >60D cutoff). Fluorescence emission of the entire 384-well plate was detected by measuring light intensity using a CCD camera (Sensys, Roper Scientific) filtered to detect 500±25 nm, resulting in simultaneous and independent readings of all 384 wells. A single image with 20-sec exposure time was collected at each temperature, and the sum of the pixel intensity in a given area of the assay plate was recorded vs temperature and fit to standard equations to yield the Tm^1. • 1.
For some experiments, quantitative NMR spectroscopy (qNMR) was used to measure concentration of the initial 100% DMSO compound solutions and, using the same fitting method, qKd values were determined

[3] = molecular target: T3, purified wild type MGL (wt-MGLL 6H-11-313) (Homo sapiens, UniProt Q99685)
T3 sequence (Q99685 1-303): T2 sequence (Q99685 1-303 L169S/L176S) with S169L, S176L

[4] = ThermoFluor thermal stability binding assay, read-out: MGL mutant ThermoFluor Kd
[5] = compound concentration measured by qNMR, read-out: MGL mutant ThermoFluor qKd (using qNMR conc.)
[6] = ThermoFluor concentration-response, read-out: MGL mutant ThermoFluor Kd
[7] = ThermoFluor, compound concentration measured by qNMR, read-out: MGL mutant ThermoFluor qKd (using qNMR conc.)
[8] = ThermoFluor, compound concentration measured by qNMR, read-out: MGL mutant ThermoFluor qKd (μM) (using qNMR conc.)

Row | Compound | 2-AG accumulation, % of vehicle control at 1 µM [1] [%] | IC50 [3] [nM] | Kd [2, 6] [µM] | further results
1 | N#Cc1ccccc1-n1ccc2cc(C(=O)N3CC(N4CCN(C(=O)c5nccs5)CC4)C3)ccc21 [Cpd 1109] | 680 | 15 | – | Kd [2, 4]: 0.022 µM
2 | O=C(c1cc(F)c2c(ccn2-c2ccc(F)cc2)c1)N1CC(N2CCN(C(=O)c3cscn3)CC2)C1 [Cpd 1111] | 508 | 16 | – | Kd [2, 5]: 0.009 µM
3 | Cc1cc(C(=O)N2CC(N3CCN(C(=O)c4ccns4)CC3)C2)ccc1-c1cccc(C(F)(F)F)c1 [Cpd 1114, 1-(Isothiazol-5-ylcarbonyl)-4-(1-{[2-methyl-3′-(trifluoromethyl)biphenyl-4-yl]carbonyl}azetidin-3-yl)piperazine] | 293 | 16 | 0.049 | –
4 | O=C(c1ccc2c(ccn2-c2ccc(C(F)(F)F)cc2)c1)N1CCN(C2CN(C(=O)c3ccc[nH]3)C2)CC1 [Cpd 1120, 5-({4-[1-(1H-Pyrrol-2-ylcarbonyl)azetidin-3-yl]piperazin-1-yl}carbonyl)-1-[4-(trifluoromethyl)phenyl]-1H-indole] | 867 | 18 | – | Kd [2, 7]: 0.02 µM
5 | O=C(c1ccc(-c2ccccc2)s1)N1CC(N2CCN(C(=O)c3nccs3)CC2)C1 [Cpd 1122, 1-{1-[(5-Phenylthiophen-2-yl)carbonyl]azetidin-3-yl}-4-(1,3-thiazol-2-ylcarbonyl)piperazine] | 143 | 18 | 0.027 | –
6 | Cc1cccc(-n2ccc3cc(C(=O)N4CC(N5CCN(C(=O)c6nccs6)CC5)C4)ccc32)n1 [Cpd 1126, 1-(6-Methylpyridin-2-yl)-5-({3-[4-(1,3-thiazol-2-ylcarbonyl)piperazin-1-yl]azetidin-1-yl}carbonyl)-1H-indole] | 850 | 19 | – | Kd [2, 7]: 0.008 µM
7 | Cc1cn(-c2ccc(F)c(F)c2)c2ccc(C(=O)N3CCN(C4CN(C(=O)c5nccs5)C4)CC3)cc12 [Cpd 1134, 1-(3,4-Difluorophenyl)-3-methyl-5-({4-[1-(1,3-thiazol-2-ylcarbonyl)azetidin-3-yl]piperazin-1-yl}carbonyl)-1H-indole] | 774 | 25 | – | Kd [2, 7]: 0.009 µM
8 | O=C(c1ccc2c(ccn2-c2ccccn2)c1)N1CC(N2CCN(C(=O)c3nccs3)CC2)C1 [Cpd 1135, 1-Pyridin-2-yl-5-({3-[4-(1,3-thiazol-2-ylcarbonyl)piperazin-1-yl]azetidin-1-yl}carbonyl)-1H-indole] | 884 | 25 | – | Kd [2, 7]: 0.015 µM
9 | Cn1nc(-c2ccccc2)c2cc(C(=O)N3CC(N4CCN(C(=O)c5nccs5)CC4)C3)ccc21 [Cpd 1137, 1-Methyl-3-phenyl-5-({3-[4-(1,3-thiazol-2-ylcarbonyl)piperazin-1-yl]azetidin-1-yl}carbonyl)-1H-indazole] | 582 | 26 | 0.01 | –
10 | O=C(c1ccc(-c2ccc(C(F)(F)F)s2)cc1)N1CC(N2CCN(C(=O)c3ccc[nH]3)CC2)C1 [Cpd 1138] | 271 | 26 | 0.018 | –
11 | O=C(c1ccoc1)N1CCN(C2CN(C(=O)c3ccc(-c4ccccc4)cc3)C2)CC1 [Cpd 1140] | 200 | 27 | – | Kd [2, 4]: 0.112 µM
12 | O=C(c1cc(-c2ccccc2)cc(C(F)(F)F)c1)N1CC(N2CCN(C(=O)c3nccs3)CC2)C1 [Cpd 1144, 1-(1,3-Thiazol-2-ylcarbonyl)-4-(1-{[5-(trifluoromethyl)biphenyl-3-yl]carbonyl}azetidin-3-yl)piperazine] | 212 | 31 | 0.181 | –
13 | Cc1nc(-c2ccc(F)cc2)sc1C(=O)N1CC(N2CCN(C(=O)c3nccs3)CC2)C1 [Cpd 1150] | 459 | 36 | 0.013 | 2-AG accumulation, % of vehicle control at 0.1 µM ([1]; compound 0.1 μM, read-out: Rat Brain 2AG % VehCntrl (%) @ 0.1 μM): 139%; 2-AG accumulation, % of vehicle control at 10 µM ([1]; compound 10 μM, read-out: Rat Brain 2AG % VehCntrl (%) @ 10 μM): 715%
14 | Cc1cn(-c2ccccc2)c2ccc(C(=O)N3CC(N4CCN(C(=O)c5cscn5)CC4)C3)cc12 [Cpd 1152] | 394 | 38 | – | Kd [2, 4]: 0.007 µM
15 | O=C(c1ccc2c(ccn2-c2ccc(F)cc2)n1)N1CC(N2CCN(C(=O)c3nccs3)CC2)C1 [Cpd 1153] | 404 | 39 | – | Kd [2, 8]: 0.004 µM
16 | O=C(c1nccs1)N1CCN(C2CN(C(=O)c3cccc4nc(-c5ccccc5)oc34)C2)CC1 [Cpd 1154, 2-Phenyl-7-({3-[4-(1,3-thiazol-2-ylcarbonyl)piperazin-1-yl]azetidin-1-yl}carbonyl)-1,3-benzoxazole] | 558 | 40 | – | Kd [2, 4]: 0.006 µM
17 | Cc1ccc(-c2nnc(-c3ccc(C(=O)N4CC(N5CCN(C(=O)c6nccs6)CC5)C4)cc3)o2)cc1 [Cpd 1156] | 681 | 41 | 0.09 | –
18 | O=C(c1cc(-c2ccc(F)cc2)cs1)N1CC(N2CCN(C(=O)c3nccs3)CC2)C1 [Cpd 1157] | 252 | 41 | – | Kd [2, 8]: 0.179 µM
19 | O=C(c1cc(-c2cccc(F)c2)cs1)N1CC(N2CCN(C(=O)c3nccs3)CC2)C1 [Cpd 1160] | 260 | 45 | – | Kd [2, 8]: 0.139 µM
20 | O=C(c1ccc(-c2ccc(C(F)(F)F)s2)cc1)N1CCN(C2CN(C(=O)c3nccs3)C2)CC1 [Cpd 1161] | 459 | 46 | 0.025 | –
21 | O=C(c1ccc(-c2ccc(C(F)(F)F)s2)cc1)N1CCN(C2CN(C(=O)c3ccc[nH]3)C2)CC1 [Cpd 1162] | 237 | 47 | – | Kd [2, 5]: 0.014 µM
22 | O=C(c1ccc2c(cnn2-c2ccccc2)c1)N1CC(N2CCN(C(=O)c3cscn3)CC2)C1 [Cpd 1163, 1-Phenyl-5-({3-[4-(1,3-thiazol-4-ylcarbonyl)piperazin-1-yl]azetidin-1-yl}carbonyl)-1H-indazole] | 244 | 48 | 0.073 | –
23 | O=C(c1ccc(-c2cccc(C(F)(F)F)c2)cc1)N1CCN(C2CN(C(=O)c3ccc[nH]3)C2)CC1 [Cpd 1166, 1-[1-(1H-Pyrrol-2-ylcarbonyl)azetidin-3-yl]-4-{[3′-(trifluoromethyl)biphenyl-4-yl]carbonyl}piperazine] | 176 | 52 | 0.01 | –
24 | COc1ccc(C(=O)N2CC(N3CCN(C(=O)c4nccs4)CC3)C2)cc1-c1ccccc1 [Cpd 1168] | 780 | 53 | 0.067 | –
25 | Cn1nc(-c2cccc(F)c2)c2cc(C(=O)N3CC(N4CCN(C(=O)c5nccs5)CC4)C3)ccc21 [Cpd 1170] | 258 | 59 | 0.014 | –
26 | O=C(c1nccs1)N1CCN(C2CN(C(=O)c3cccc(-c4ccccc4)c3F)C2)CC1 [Cpd 1172] | 931 | 63 | 0.178 | –
27 | O=C(c1nccs1)N1CCN(C2CN(C(=O)c3cccc4oc(-c5ccccc5Cl)nc34)C2)CC1 [Cpd 1173] | 133 | 65 | – | Kd [2, 4]: 0.007 µM
